According to ChEMBL document CHEMBL3045855, “ANTIPYRETIC, ANTINOCICEPTIVE AND ANTI-INFLAMMATORY ACTIVITIES OF CERTAIN -OXOBUTANOIC ACID DERIVATIVES” (2005):

Columns and labels:
Assay type in all cases: functional
Mus musculus [1] = test: Antinociceptive activity in Mus musculus Swiss (mouse) assessed as protection against acetic acid-induced writhing at 50 mg/kg, po administered 1 hr prior challenge measured for 20 min following acetic acid treatment relative to control
Rattus norvegicus [2] = test: Antipyretic activity in yeast-fevered Rattus norvegicus Sprague-Dawley (rat) assessed as reduction in rectal temperature at 50 mg/kg, po administered 17 hr post challenge measured after 90 min; parameters: scale not given: the % may be the effect or the level left
Rattus norvegicus [3] = test: Anti-inflammatory activity in Rattus norvegicus Sprague-Dawley (rat) assessed as inhibition of carrageenan-induced paw edema at 50 mg/kg, po for 7 days challenged with carrageenan 1 hr post last dose on day 7 measured after 2 hr after challenge
Rattus norvegicus [4] = test: Antipyretic activity in yeast-fevered Rattus norvegicus Sprague-Dawley (rat) assessed as reduction in rectal temperature at 50 mg/kg, po administered 17 hr post challenge measured after 60 min; parameters: scale not given: the % may be the effect or the level left
Rattus norvegicus [5] = test: Antipyretic activity in yeast-fevered Rattus norvegicus Sprague-Dawley (rat) assessed as reduction in rectal temperature at 50 mg/kg, po administered 17 hr post challenge measured after 120 min; parameters: scale not given: the % may be the effect or the level left
Rattus norvegicus [6] = test: Anti-inflammatory activity in Rattus norvegicus Sprague-Dawley (rat) assessed as inhibition of carrageenan-induced paw edema at 100 mg/kg, po for 7 days challenged with carrageenan 1 hr post last dose on day 7 measured after 2 hr after challenge
Rattus norvegicus [7] = test: Antipyretic activity in yeast-fevered Rattus norvegicus Sprague-Dawley (rat) assessed as reduction in rectal temperature at 50 mg/kg, po administered 17 hr post challenge measured after 30 min; parameters: scale not given: the % may be the effect or the level left
Rattus norvegicus [8] = test: Anti-inflammatory in Rattus norvegicus Sprague-Dawley (rat) subcutaneously implanted with cotton pellets assessed as inhibition of granuloma growth at 50 mg/kg, po measured after 7 days; details: 168 h
Rattus norvegicus [9] = test: Antipyretic activity in yeast-fevered Rattus norvegicus Sprague-Dawley (rat) assessed as reduction in rectal temperature at 100 mg/kg, po administered 17 hr post challenge measured after 90 min; parameters: scale not given: the % may be the effect or the level left
Rattus norvegicus [10] = test: Antipyretic activity in yeast-fevered Rattus norvegicus Sprague-Dawley (rat) assessed as reduction in rectal temperature at 100 mg/kg, po administered 17 hr post challenge measured after 120 min; parameters: scale not given: the % may be the effect or the level left
Rattus norvegicus [11] = test: Antipyretic activity in yeast-fevered Rattus norvegicus Sprague-Dawley (rat) assessed as reduction in rectal temperature at 100 mg/kg, po administered 17 hr post challenge measured after 30 min; parameters: scale not given: the % may be the effect or the level left
Rattus norvegicus [12] = test: Antipyretic activity in yeast-fevered Rattus norvegicus Sprague-Dawley (rat) assessed as reduction in rectal temperature at 100 mg/kg, po administered 17 hr post challenge measured after 60 min; parameters: scale not given: the % may be the effect or the level left
Rattus norvegicus [13] = test: Anti-inflammatory activity in Rattus norvegicus Sprague-Dawley (rat) assessed as inhibition of carrageenan-induced paw edema at 25 mg/kg, po for 7 days challenged with carrageenan 1 hr post last dose on day 7 measured after 2 hr after challenge
Mus musculus [14] = test: Antinociceptive activity in Mus musculus Swiss (mouse) assessed as protection against acetic acid-induced writhing at 25 mg/kg, po administered 1 hr prior challenge measured for 20 min following acetic acid treatment relative to control
Rattus norvegicus [15] = test: Anti-inflammatory in Rattus norvegicus Sprague-Dawley (rat) subcutaneously implanted with cotton pellets assessed as inhibition of granuloma growth at 25 mg/kg, po measured after 7 days; details: 168 h

Structure (SMILES) | Activity (Mus musculus [1]) [%] | Activity (Rattus norvegicus [2]) [%] | inhibition in vivo at 50 mg/kg (Rattus norvegicus [3]) [%] | Activity (Rattus norvegicus [4]) [%] | Activity (Rattus norvegicus [5]) [%] | inhibition in vivo at 100 mg/kg (Rattus norvegicus [6]) [%] | Activity (Rattus norvegicus [7]) [%] | inhibition in vivo at 50 mg/kg (Rattus norvegicus [8]) [%] | Activity (Rattus norvegicus [9]) [%] | Activity (Rattus norvegicus [10]) [%] | Activity (Rattus norvegicus [11]) [%] | Activity (Rattus norvegicus [12]) [%] | inhibition in vivo at 25 mg/kg (Rattus norvegicus [13]) [%] | Activity (Mus musculus [14]) [%] | inhibition in vivo at 25 mg/kg (Rattus norvegicus [15]) [%]
NC(=O)c1cc(C(=O)CCC(=O)O)ccc1O | 59.24 | 2.71 | 13.6 | 2.11 | 2.44 | 27.5 | 0.86 | 34.4 | – | – | – | – | – | – | –
CC(=O)Nc1ccc(O)cc1 [ACETAMINOPHEN] | – | – | – | – | – | – | – | – | 5.47 | 6.06 | 4.18 | 5.14 | – | – | –
CC(=O)c1cc(C(=O)CCC(=O)O)ccc1O | 61.47 | 2.63 | 4.11 | 1.8 | 2.52 | 22.4 | 1.58 | 5.2 | – | – | – | – | – | – | –
O=C(O)CCC(=O)/C=C/c1ccc2c(c1)OCO2 | 69.65 | 3.41 | 57.5 | 4.08 | 2.49 | 68.8 | 0.99 | 53.3 | – | – | – | – | – | – | –
O=C([O-])Cc1ccccc1Nc1c(Cl)cccc1Cl.[Na+] [DICLOFENAC SODIUM] | – | – | – | – | – | – | – | – | – | – | – | – | 47.6 | 72.58 | 45.4
